Like-named read-outs stand apart in the source and are kept apart here. Blank lines part the entries; values can stand above or below the molecule they belong to.
Experiments:
FXR = target: T1, FXR (Homo sapiens, UniProt Q96RI1); test: FXR agonistic activity by reporter gene (pGAL4-FXR-LBD / pG5-Luc, Dual-Glo luciferase) in HEK293T cells; assay type: cell-based
T1 construct: expressed in transfected cells; host or cells: HEK293T
T1 sequence (Q96RI1 212-476 isoform Q96RI1-1): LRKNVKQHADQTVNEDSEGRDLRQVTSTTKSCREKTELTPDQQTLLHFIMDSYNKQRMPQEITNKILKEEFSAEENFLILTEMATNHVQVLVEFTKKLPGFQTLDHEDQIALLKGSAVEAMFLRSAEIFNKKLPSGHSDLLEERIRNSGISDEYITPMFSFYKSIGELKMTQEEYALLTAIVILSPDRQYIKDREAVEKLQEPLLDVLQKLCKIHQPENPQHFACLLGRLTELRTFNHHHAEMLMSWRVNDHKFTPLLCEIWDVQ
Experimental: 1.2 Plasmid Co-transfection of HEK293T Cells and Compound Treatment HEK293T cells were seeded in 96-well plates at a density of 1×10^4/well one day before plasmid transfection. […] 2 duplicate wells were set up in total. […] The dose-response curves were fitted with four parameters using GraphPad Prism 6.0 software, and EC50 values were calculated.

[1] = mouse, in vivo, iv, 1 mg/kg
Experimental: (§1) In each group of embodiment, 6 male ICR mice with a similar body weight were selected, of which 3 mice were dosed orally in a single dose of 3 mg/kg, and 3 mice were dosed intravenously in a single dose of 1 mg/kg. Blood samples were collected at time points of 15 min, 30 min, 1 h, 2 h, 4 h and 7 h after administration. The concentrations of plasma samples were analyzed by LC-MS/MS.
(§2) 12 healthy male ICR mice, commercially available from Charles River with an animal production license NO.: 2021123 1Abzz0619000376, were divided into 4 groups, 3 in each group.
(§3) Formulation preparation: a certain amount of compounds were weighed and added into a 2% DMSO+15% Solutol+83% saline, to prepare a clear solution.
(§4) Dosage: ICR mice were fasted overnight and given each compound at an oral dose of 3 mg/kg or an intravenous dose of 1 mg/kg. The administrated volume for oral and intravenous administration are 10 mL/kg and 5 mL/kg, respectively.
(§5) Sample collection: About 30 µL of blood was collected via great saphenous vein at 15 min, 30 min, 1 h, 2 h, 4 h and 7 h after dosage. The blood was placed into a commercial tube containing K2-EDTA. Plasma samples were then obtained by centrifuging the blood samples at approximately 4°C, 4600 rpm for 5 minutes. All plasma samples were then quickly frozen on dry ice and kept at -70°C until LC-MS/MS analysis.
(§6) Sample preparation: 10 µL of plasma samples were precipitated by methanol containing 50 nmol/L of α-naphthoflavone as internal standard. The mixture was votex-mixed well and centrifuged at 14000 rpm for 5 min at 4°C. 75 µL of the supernatant was taken and mixed with 75 µL of methanol, and introduced for LC-MS/MS analysis.

in vivo = details: mouse, po, 3 mg/kg
Experimental: as §1, §2, §3, §4, §5, §6

[2] = Cellular Level Activity EC50(nM) of FXR, HEK293T cells co-transfected with pGAL4-FXR-LBD, pG5-Luc, phRL-TK, 24 h treatment
[3] = HEK293T cells co-transfected with pGAL4-FXR-LBD, pG5-Luc, phRL-TK, 24 h treatment, read-out: Cellular Level Activity EC50(nM) of FXR
[4] = HEK293T reporter gene assay, read-out: EC50 values (FXR agonistic activity)
[5] = EC50 values (FXR agonistic activity), HEK293T reporter gene assay

SMILES: O=c1[nH]c(-c2ccc(N3[C@@H]4CC[C@H]3C[C@@H](OCc3c(-c5c(Cl)cccc5Cl)noc3C3CC3)C4)cc2F)no1 [Control 1, reference compound]
EC50 (FXR; [2]): 5 to 10 nM

CL_obs [1]: 20.5 ± 4.6 mL/min/kg
Vss_obs [1]: 0.418 ± 0.076 L/kg
AUC(0-t) at 7 h (in vivo): 318 ± 172 ng·h/mL
Cmax (in vivo): 312 ± 140 ng/mL
bioavailability (in vivo): 12.6%
SMILES: O=c1[nH]c(-c2ccc(N3C4CCC3CC(OCc3c(-c5ccccc5C(F)(F)F)noc3C3CC3)C4)cc2F)no1 (stereo not shown) [Embodime nt 1]

CL_obs [1]: 21.6 ± 2.4 mL/min/kg
Vss_obs [1]: 0.704 ± 0.033 L/kg
AUC(0-t) at 7 h (in vivo): 587 ± 54 ng·h/mL
Cmax (in vivo): 555 ± 25 ng/mL
bioavailability (in vivo): 25.2%
SMILES: [2H]C([2H])(O[C@H]1C[C@H]2CC[C@@H](C1)N2c1ccc(-c2noc(=O)[nH]2)c(F)c1)c1c(-c2ccccc2C(F)(F)F)noc1C1CC1 [Embodime nt 2]

EC50 (FXR; [3]): < 5 nM
EC50 (FXR; [4]): < 5 nM
SMILES: [2H]C([2H])(OC1CC2CCC(C1)N2c1ccc(-c2noc(=O)[nH]2)cc1)c1c(-c2c(Cl)cccc2Cl)noc1C1CC1 (stereo not shown) [Example 1]

EC50 (FXR; [3]): < 5 nM
EC50 (FXR; [4]): < 5 nM
SMILES: [2H]C([2H])(OC1CC2CCC(C1)N2c1ccc(-c2noc(=O)[nH]2)nc1)c1c(-c2c(Cl)cccc2Cl)noc1C1CC1 (stereo not shown) [Example 2]

SMILES: [2H]C([2H])(OC1CC2CCC(C1)N2c1ccc(-c2noc(=O)[nH]2)c(F)c1)c1c(-c2c(Cl)cccc2Cl)noc1C1CC1 (stereo not shown) [Example 3]
EC50 (FXR; [2]): < 5 nM
EC50 (FXR; [5]): < 5 nM
FXR agonistic activity / cellular level activity (in words) (FXR; HEK293T reporter gene assay, comparison with LJN452 and Control 1): significantly improved activity

SMILES: [2H]C(OC1CC2CCC(C1)N2c1ccc(-c2noc(=O)[nH]2)c(F)c1)c1c(-c2c(Cl)cccc2Cl)noc1C1CC1 (stereo not shown) [Example 4]
EC50 (FXR; [2]): < 5 nM
EC50 (FXR; [5]): < 5 nM

EC50 (FXR; [3]): 5 to 10 nM
SMILES: [2H]C([2H])(OC1CC2CCC(C1)N2c1ccc(-c2noc(=O)[nH]2)c(C)c1)c1c(-c2c(Cl)cccc2Cl)noc1C1CC1 (stereo not shown) [Example 5]

EC50 (FXR; [3]): 5 to 10 nM
SMILES: [2H]C([2H])(OC1CC2CCC(C1)N2c1ccc(-c2noc(=O)[nH]2)c(OC)c1)c1c(-c2c(Cl)cccc2Cl)noc1C1CC1 (stereo not shown) [Example 6]

EC50 (FXR; [3]): 5 to 10 nM
SMILES: [2H]C([2H])(OC1CC2CCC(C1)N2c1ccc(-c2noc(=O)[nH]2)c(C(F)(F)F)c1)c1c(-c2c(Cl)cccc2Cl)noc1C1CC1 (stereo not shown) [Example 7]

EC50 (FXR; [3]): 5 to 10 nM
SMILES: [2H]C([2H])(OC1CC2CCC(C1)N2c1ccc(-c2noc(=O)[nH]2)c(F)c1)c1c(-c2ccccc2C(F)(F)F)noc1C1CC1 (stereo not shown) [Example 8]

EC50 (FXR; [3]): 5 to 10 nM
SMILES: [2H]C([2H])(OC1CC2CCC(C1)N2c1ccc(-c2noc(=O)[nH]2)c(F)c1)c1c(-c2ccccc2OC(F)(F)F)noc1C1CC1 (stereo not shown) [Example 9]

Reference: patent publication EP4245365B1, “A FXR SMALL MOLECULE AGONIST, THE PREPARATION AND USE THEREOF” (Cascade Pharmaceuticals, Inc., priority 2022, dated 2023)
